According to US20100286145A1, “ISOPHTHALAMIDE DERIVATIVES INHIBITING BETA-SECRETASE ACTIVITY” (CoMentis, Inc., priority 2007, published 2010):
Read-outs that look alike come from different tables or passages of the source.

Tests used:
[1] = test system: Aβ production in Chinese hamster ovary cells that over-express human APP695 with the London and Swedish mutations; test: Cellular Aβ IC50 determination (Aβ40 sandwich ELISA); format: cell-based; conditions: cellular Aβ production, read-out: IC50
Protocol: The potency of compounds against memapsin 2 activity was determined in a cellular assay of Aβ production. […] Chinese hamster ovary cells that over-express human APP695 with the London and Swedish mutations were seeded in multi-well plates at 10% confluency. Compounds are dissolved in DMSO to concentrations near 1 mM, and diluted into culture media to a final concentration near 4 μM (final 0.4% DMSO). […] Aliquots were removed and assayed for Aβ40 content using a sandwich ELISA (BioSource International). Amount of Aβ40 over the range of concentration of compounds, relative to control incubations, were fit to a 4-parameter IC50 model.

memapsin 2 = memapsin 2 (Homo sapiens, UniProt P56817); test: Inhibition of memapsin 2 beta-secretase activity (fluorogenic substrate FS-2); format: biochemical; conditions: memapsin 2, pH 4, 37° C., read-out: M2Ki
memapsin 2, sequence (P56817 46-501): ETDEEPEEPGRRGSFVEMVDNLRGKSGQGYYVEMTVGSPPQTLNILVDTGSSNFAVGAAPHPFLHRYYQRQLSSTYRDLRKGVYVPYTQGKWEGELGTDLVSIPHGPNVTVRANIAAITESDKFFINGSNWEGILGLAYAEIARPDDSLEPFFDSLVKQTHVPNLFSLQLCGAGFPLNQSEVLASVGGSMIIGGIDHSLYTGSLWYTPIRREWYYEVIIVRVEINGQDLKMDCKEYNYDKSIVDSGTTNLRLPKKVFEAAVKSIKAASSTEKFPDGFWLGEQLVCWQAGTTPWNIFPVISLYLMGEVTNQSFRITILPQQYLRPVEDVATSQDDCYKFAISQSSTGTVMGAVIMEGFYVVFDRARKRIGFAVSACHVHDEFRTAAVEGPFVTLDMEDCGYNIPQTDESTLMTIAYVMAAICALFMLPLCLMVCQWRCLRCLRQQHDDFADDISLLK
Method in brief: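 Kinetic fluorogenic assay: hydrolysis of the MCA/DNP-labelled APP Swedish-variant peptide FS-2 monitored as fluorescence rise at 37° C, pH 4, after 20 min enzyme–compound preincubation. Relative rates fitted with a tight-binding inhibitor model.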

IC50 ([1]; Cricetulus griseus) | Ki (memapsin 2; fluorogenic substrate FS-2) | Ki (memapsin 2; 20 minutes pre-incubation) | IC50 [1] | SMILES
< 1000 nM | < 300 nM | – | – | Cc1csc(CN(C)C(=O)c2cc(C(=O)N[C@@H](Cc3ccccc3)[C@H](O)CNCc3cncc(C(C)C)c3)cc(C(C)C)c2)n1 [Compound 274, N1-((2S,3R)-3-hydroxy-4-((5-isopropylpyridin-3-yl)methylamino)-1-phenylbutan-2-yl)-5-isopropyl-N3-methyl-N3-((4-methylthiazol-2-yl)methyl)isophthalamide]
< 1000 nM | < 300 nM | – | – | Cc1csc(CN(C)C(=O)c2cc(C(=O)N[C@@H](Cc3ccccc3)[C@H](O)CNCc3cncc(C(C)(C)F)c3)cc(C(C)C)c2)n1 [Compound 277, N1-((2S,3R)-4-((5-(2-fluoropropan-2-yl)pyridin-3-yl)methylamino)-3-hydroxy-1-phenylbutan-2-yl)-5-isopropyl-N3-methyl-N3-((4-methylthiazol-2-yl)methyl)isophthalamide]
< 1000 nM | – | < 300 nM | – | COc1cccc(CNC[C@@H](O)[C@H](Cc2ccccc2)NC(=O)c2cc(C(=O)N(C)Cc3nc(C)cs3)cc(N3CCCC3=O)c2)c1 [Compound 194, N1-((2S,3R)-3-hydroxy-4-(3-methoxybenzylamino)-1-phenylbutan-2-yl)-N3-methyl-N3-((4-methylthiazol-2-yl)methyl)-5-(2-oxopyrrolidin-1-yl)isophthalamide]
1000 to 5000 nM | > 501 nM | – | – | Cc1nnc(CN(C)C(=O)c2cccc(C(=O)N[C@@H](Cc3ccccc3)[C@H](O)CNCc3cncc(C(C)C)c3)c2)o1 [Compound 256, N1-((2S,3R)-3-hydroxy-4-((5-isopropylpyridin-3-yl)methylamino)-1-phenylbutan-2-yl)-N3-methyl-N3-((5-methyl-1,3,4-oxadiazol-2-yl)methyl)isophthalamide]
< 1000 nM | – | < 300 nM | – | Cc1csc(CN(C)C(=O)c2cc(C(=O)N[C@@H](Cc3ccccc3)[C@H](O)CNCc3cncc(C(C)C)c3)cc(-c3ccncc3)c2)n1 [Compound 205, N1-((2S,3R)-3-hydroxy-4-((5-isopropylpyridin-3-yl)methylamino)-1-phenylbutan-2-yl)-N3-methyl-N3-((4-methylthiazol-2-yl)methyl)-5-(pyridin-4-yl)isophthalamide]
< 1000 nM | – | < 300 nM | – | Cc1csc(CN(C)C(=O)c2cc(C(=O)N[C@@H](Cc3ccccc3)[C@H](O)CNCc3cncc(C(C)C)c3)cc(C(F)F)c2)n1 [Compound 204, 5-(difluoromethyl)-N1-((2S,3R)-3-hydroxy-4-((5-isopropylpyridin-3-yl)methylamino)-1-phenylbutan-2-yl)-N3-methyl-N3-((4-methylthiazol-2-yl)methyl)isophthalamide]
< 1000 nM | < 300 nM | – | – | Cc1csc(CN(C)C(=O)c2cccc(C(=O)N[C@@H](Cc3ccccc3)[C@H](O)CNCc3cncc(Cl)c3)c2)n1 [Compound 216, N1-((2S,3R)-4-((5-chloropyridin-3-yl)methylamino)-3-hydroxy-1-phenylbutan-2-yl)-N3-methyl-N3-((4-methylthiazol-2-yl)methyl)isophthalamide]

More lines, now with the values behind:

SMILES | IC50 ([1]; Cricetulus griseus) | Ki (memapsin 2; fluorogenic substrate FS-2) | Ki (memapsin 2; 20 minutes pre-incubation) | IC50 [1]
CCN(Cc1nc(C)cs1)C(=O)c1cc(OC)cc(C(=O)N[C@@H](Cc2ccccc2)[C@H](O)CNCc2cccc(OC)c2)c1 [Compound 16, N1-ethyl-N3-((2S,3R)-3-hydroxy-4-(3-methoxybenzylamino)-1-phenylbutan-2-yl)-5-methoxy-N1-((4-methylthiazol-2-yl)methyl)isophthalamide] | < 1000 nM | – | < 300 nM | –
Cc1csc(CN(C)C(=O)c2cccc(C(=O)N[C@@H](Cc3ccccc3)[C@H](O)CNCc3cc(NC(=O)OCc4ccccc4)cc(C(C)C)c3)c2)n1 [Compound 74, benzyl 3-(((2R,3S)-2-hydroxy-3-(3-(methyl((4-methylthiazol-2-yl)methyl)carbamoyl)benzamido)-4-phenylbutylamino)methyl)-5-isopropylphenylcarbamate] | < 1000 nM | – | < 300 nM | –
Cc1csc(CN(C)C(=O)c2cc(C(=O)N[C@@H](Cc3ccccc3)[C@H](O)CNCc3cncc(C(C)C)c3)cc(-c3ccccn3)c2)n1 [Compound 181, N1-((2S,3R)-3-hydroxy-4-((5-isopropylpyridin-3-yl)methylamino)-1-phenylbutan-2-yl)-N3-methyl-N3-((4-methylthiazol-2-yl)methyl)-5-(pyridin-2-yl)isophthalamide] | < 1000 nM | – | < 300 nM | –
COc1cccc(CN(C)C[C@@H](O)[C@H](Cc2ccccc2)NC(=O)c2cccc(C(=O)N(C)Cc3nc(C)cs3)c2)c1 [Compound 1, N^1-((2S,3R)-3-hydroxy-4-((3-methoxybenzyl)(methyl)amino)-1-phenylbutan-2-yl)-N^3-methyl-N^3-((4-methylthiazol-2-yl)methyl)isophthalamide] | – | – | < 300 nM | < 1000 nM
Cc1csc(CN(C)C(=O)c2cccc(C(=O)N[C@@H](Cc3ccccc3)[C@H](O)CNCc3cc(NS(C)(=O)=O)cc(C(C)C)c3)c2)n1 [Compound 119, N1-((2S,3R)-3-hydroxy-4-(3-isopropyl-5-(methylsulfonamido)benzylamino)-1-phenylbutan-2-yl)-N3-methyl-N3-((4-methylthiazol-2-yl)methyl)isophthalamide] | < 1000 nM | – | < 300 nM | –
COc1cccc(CNC[C@@H](O)[C@H](Cc2ccccc2)NC(=O)c2cc(CN=[N+]=[N-])cc(C(=O)N(C)Cc3nc(C)cs3)c2)c1 [Compound 121, 5-(azidomethyl)-N1-((2S,3R)-3-hydroxy-4-(3-methoxybenzylamino)-1-phenylbutan-2-yl)-N3-methyl-N3-((4-methylthiazol-2-yl)methyl)isophthalamide] | < 1000 nM | – | < 300 nM | –
Cc1csc(CN(C(=O)c2cccc(C(=O)N[C@@H](Cc3ccccc3)[C@H](O)CNCc3cncc(C(F)(F)F)c3)c2)C2CC2)n1 [Compound 59, N1-cyclopropyl-N3-((2S,3R)-3-hydroxy-1-phenyl-4-((5-(trifluoromethyl)pyridin-3-yl)methylamino)butan-2-yl)-N1-((4-methylthiazol-2-yl)methyl)isophthalamide] | < 1000 nM | – | < 300 nM | –
Cc1csc(CN(C)C(=O)c2cccc(C(=O)N[C@@H](Cc3ccccc3)[C@H](O)CNCc3cc(OS(C)(=O)=O)cc(C(C)C)c3)c2)n1 [Compound 165, 3-(((2R,3S)-2-hydroxy-3-(3-(methyl((4-methylthiazol-2-yl)methyl)carbamoyl)benzamido)-4-phenylbutylamino)methyl)-5-isopropylphenyl methanesulfonate] | < 1000 nM | – | < 300 nM | –
COc1cccc(CNC[C@@H](O)[C@H](Cc2ccccc2)NC(=O)c2cc(C)cc(C(=O)N(Cc3nc(C)cs3)C3CC3)c2)c1 [Compound 9, N1-cyclopropyl-N3-((2S,3R)-3-hydroxy-4-(3-methoxybenzylamino)-1-phenylbutan-2-yl)-5-methyl-N1-((4-methylthiazol-2-yl)methyl)isophthalamide] | < 1000 nM | – | < 300 nM | –
Cc1csc(CN(C)C(=O)c2cccc(C(=O)N[C@@H](Cc3ccccc3)[C@H](O)CNCc3cccc4cc[nH]c34)c2)n1 [Compound 39, N1-((2S,3R)-4-((1H-indol-7-yl)methylamino)-3-hydroxy-1-phenylbutan-2-yl)-N3-methyl-N3-((4-methylthiazol-2-yl)methyl)isophthalamide] | – | – | < 300 nM | –
